EP1285920A1, “C10 Ester sustituted taxanes as antitumor agents” (Florida State University Research Foundation, Inc., priority 2001, dated 2003)

Columns and labels:
A2780 ovarian carcinoma = system: A2780 ovarian carcinoma
Procedure: Dosing was initiated on Day 1. […] Taxotere was given i.v. on a qd x 1 schedule at a dose of 70 mg/kg. […] The study was terminated on Day 60. Treatment groups are detailed in Table 7.

SKMES lung carcinoma = assay: In vivo evaluation of compound 0503 against SKMES human lung carcinoma xenograft, i.v. dose range (Example 20); conditions: for % Total Response: complete or partial responses among evaluable animals; for MDS (n): mean days of survival until neoplasm reached 2.0 g, 6 mice, terminated Day 60; for survival extension / MDS: other mice; for MDS: tumor 2.0 g
Procedure: The antitumor compound was prepared in a vehicle of 10% ethanol and 90% Liposyn III in the manner as described for Emulsion 3 of Example 9.
Treatment groups consisted of: vehicle only (Group 1), and antitumor compound 0503 (dosages of 104 mg/kg, 72.8 mg/kg, 41.6 mg/kg, and 10.4 mg/kg; Groups 2-5, respectively).

SK-MES carcinoma = assay: In vivo evaluation against SK-MES human lung carcinoma xenograft (i.v., Example 11)
Procedure: Antitumor compounds were formulated for an i.v. dosing regime prepared in the following vehicle: 10% ethanol, 10% Cremophor and 80% isotonic saline.
Vehicle control animals were dosed twice intravenously with half the total volume being given separated by one hour. The study was terminated on Day 60.
A complete response is obtained if the tumor is not palpable at the end of the study.
A tumor scoring system was designed to provide a more quantitative ranking of efficacy (therapeutic potential) among the antitumor agents evaluated against the different human solid tumor xenografts. Each mouse in a study was given a score of from 1 to 10 at the end of the study. The scores can be summarized as follows:
The individual score for each mouse was averaged into a mean score for each treatment group. […]

HCT116 carcinoma = conditions: i.v. qd x 1 at MTD, Day 60
In short: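 Mice bearing HCT116 tumours received a single i.v. maximum tolerated dose per compound, formulated in 5% ethanol, 5% Cremophor, 90% isotonic saline. Study ended on Day 60; complete response meant no palpable tumour at study end.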

[1] = number of mice, i.v. qd x 1 at estimated MTD (Taxol 24 mg/kg, Taxotere 70 mg/kg, 0983 72.6 mg/kg), 5 mice/group (Taxotere 6), Day 60
[2] = 10.4 mg/kg, single IV bolus Day 1
[3] = 10.4 mg/kg, single IV bolus Day 1, number of mice of 6, Day 60
[4] = 41.6 mg/kg, single IV bolus Day 1
[5] = 41.6 mg/kg, single IV bolus Day 1, number of mice of 6, Day 60
[6] = 72.8 mg/kg, single IV bolus Day 1
[7] = 72.8 mg/kg, single IV bolus Day 1, number of mice of 6, Day 60
[8] = 104 mg/kg, single IV bolus Day 1
[9] = 104 mg/kg, single IV bolus Day 1, number of mice of 6, Day 60
[10] = SKMES, 72.8 mg/kg single IV bolus (Group 3)
[11] = SKMES, 72.8 mg/kg single IV bolus (Group 3), six mice
[12] = SKMES, 104 mg/kg single IV bolus (Group 2)

## CCC(=O)O[C@H]1C(=O)[C@@]2(C)[C@H]([C@H](OC(=O)c3ccccc3)[C@]3(O)C[C@H](OC(=O)[C@H](O)[C@@H](NC(=O)OC(C)(C)C)c4ccccn4)C(C)=C1C3(C)C)[C@]1(OC(C)=O)CO[C@@H]1C[C@@H]2O [Compound 0503]
A2780 ovarian carcinoma; A2780, i.v. qd x 1
  antitumor activity: did not cause any complete responses, partial responses, or cases of stable disease
A2780 ovarian carcinoma; mean days of survival until neoplasm reached 2.0 g, i.v. qd x 1 at estimated MTD (Taxol 24 mg/kg, Taxotere 70 mg/kg, 0983 72.6 mg/kg), 5 mice/group (Taxotere 6), terminated Day 60
  MDS (n): 32.4 ± 4.7 (5) days
A2780 ovarian carcinoma; number of mice, i.v. qd x 1 at estimated MTD (Taxol 24 mg/kg, Taxotere 70 mg/kg, 0983 72.6 mg/kg), 5 mice/group (Taxotere 6)
  Toxic Deaths: 0
A2780 ovarian carcinoma; [1]
  Complete Response: 0
  Partial Respons: 0
  Stable Disease: 0
  Survivors: 0
A2780 ovarian carcinoma; tumor scoring system, i.v. qd x 1 at estimated MTD (Taxol 24 mg/kg, Taxotere 70 mg/kg, 0983 72.6 mg/kg), 5 mice/group (Taxotere 6)
  Mean Score: 2.8 ± 0.2
SKMES lung carcinoma; [2]
  % Total Response: 0%
  MDS (n): 26.0 ± 2.5 (6) days
SKMES lung carcinoma; 10.4 mg/kg, single IV bolus Day 1, number of mice of 6
  Toxic Deaths: 0
SKMES lung carcinoma; [3]
  Partial Response: 0
  Stable Disease: 0
  Survivors: 0
SKMES lung carcinoma; [4]
  % Total Response: 0%
  MDS (n): 33.8 ± 3.4 (5) days
SKMES lung carcinoma; 41.6 mg/kg, single IV bolus Day 1, number of mice of 6
  Toxic Deaths: 0
SKMES lung carcinoma; [5]
  Partial Response: 0
  Stable Disease: 1
  Survivors: 1
SKMES lung carcinoma; [6]
  % Total Response: 33.3%
  MDS (n): 37.4 ± 5.2 (4) days
SKMES lung carcinoma; 72.8 mg/kg, single IV bolus Day 1, number of mice of 6
  Toxic Deaths: 0
SKMES lung carcinoma; [7]
  Partial Response: 1
  Stable Disease: 0
  Survivors: 2
SKMES lung carcinoma; [8]
  % Total Response: 50.0%
  MDS (n): 46.6 ± 3.2 (3) days
SKMES lung carcinoma; 104 mg/kg, single IV bolus Day 1, number of mice of 6
  Toxic Deaths: 0
SKMES lung carcinoma; [9]
  Partial Response: 0
  Stable Disease: 0
  Survivors: 3
SKMES lung carcinoma; [10]
  survival extension: 114%
  MDS: 37.4 days
SKMES lung carcinoma; [11]
  Complete Response: One
  Partial Response: one
SKMES lung carcinoma; SKMES, 104 mg/kg single IV bolus (Group 2), 10% ethanol, 90% Liposyn III, six mice
  complete tumor regressions: Three
SKMES lung carcinoma; [12]
  survival extension: 167%
  MDS: 46.6 days
SK-MES carcinoma; SK-MES, 0503 72.1 mg/kg i.v.
  antitumor activity: highly active
SK-MES carcinoma; SK-MES, i.v. MTD in two half doses one hour apart, qd x 1, Taxol 36 mg/kg, 0503 72.1 mg/kg, days until tumor 1.5 g, ended Day 60
  MDS (n): 46.0 ± 0(2) days
SK-MES carcinoma; SK-MES, i.v. split dose qd x 1, six mice per group
  Toxic Deaths: 0
SK-MES carcinoma; SK-MES, i.v. split dose qd x 1, six mice per group, Day 60
  Survivors: 4
SK-MES carcinoma; SK-MES, i.v. split dose qd x 1, tumor below 1.5 g at termination
  Stable Disease: 1
SK-MES carcinoma; SK-MES, i.v. split dose qd x 1, tumor smaller than on Day 1
  Partial Response: 0
SK-MES carcinoma; SK-MES, tumor score 1 to 10 per mouse, group mean
  Mean Score: 6.5 ± 1.6
SK-MES carcinoma; mouse, in vivo, iv, 72.1 mg/kg
  tolerability: well tolerated
HCT116 carcinoma; 5 mice/group, doses as in E3
  Mean Score: 9.2 ± 0.2
HCT116 carcinoma; number of 5 mice, tumor did not reach 2.0 g by end of study, doses as in E3
  Stable Disease: 0
HCT116 carcinoma; number of 5 mice, tumor not palpable at end of study, doses as in E3
  Complete Response: 1
HCT116 carcinoma; number of 5 mice, tumor smaller than on Day 1, doses as in E3
  Partial Response: 4
HCT116 carcinoma; number of 5 mice, doses as in E3
  Survivors: 5
HCT116 carcinoma; number of 5 mice, mg/kg: Taxol 36 (split doses), 0503 72.6, 0536 49, 0663 159, 0670 123, 0687 159, 0706 108, 0908 159, 0947 76.9, 0951 72.6, 0983 72.6, 0999 49, 1003 49, 1011 108
  Toxic Deaths: 0
